# Read-outs that look alike come from different tables or passages of the source.
# What was measured:
# P. falciparum 7G8 (CQR) = experiment: Inhibition of P. falciparum growth, CQR 7G8 (SYBR green I fluorescence); assay type: cell-based, Plasmodium falciparum
# Excerpt: (§1) Inhibition of P. falciparum growth.
# (§2) CQS (D6) and CQR (Dd2 and 7G8) P. falciparum maintained continuously in culture were used ([38]). […] The fluorescence readings were plotted against log(drug), and the IC50s were obtained from curve fitting performed by nonlinear regression using either Prism (GraphPad) or Excel (Microsoft) software.
# P. falciparum D6 (CQS) [1] = experiment: Inhibition of P. falciparum growth, CQS D6 (SYBR green I fluorescence); assay type: cell-based
# Excerpt: as §1, §2
# [2] = Single-dose toxicity evaluation in mice; assay type: in vivo; conditions: for Toxicity observation: single-dose experiments on 1 or 2 mice/compound, doses limited by water solubility
# Protocol: (§3) The compounds were first converted to water-soluble hydrochloride or phosphate salts for administration in aqueous solution. Efficacy testing was carried out using 4 different dose levels with 5 mice at each level, administered by oral gavage. […] A single-dose toxicity evaluation was also performed, using 1 or 2 mice in each case.
# P. falciparum Dd2 (CQR) [3] = experiment: Inhibition of P. falciparum growth, CQR Dd2 (SYBR green I fluorescence); assay type: cell-based
# Excerpt: as §1, §2
# P. yoelii = experiment: In vivo 3-day suppressive test against P. yoelii in a murine malaria model; design: species or system Plasmodium yoelii; conditions: mice, oral gavage, 3 daily doses, water-soluble hydrochloride or phosphate salts; errors estimated ±20%
# Protocol: as §3, with “A selection of the compounds (compounds 9, 10, 12, 21, 23, and 24) was tested in vivo against P. yoelii in a murine malaria model. The” for “The”, “case. The doses were limited by water solubilities.” for “case.”
# In vivo 3-day suppressive test.
# Female CF-1 mice, at 4 to 5 weeks of age, were injected intravenously with 10^6 erythrocytes infected with P. yoelii ([43][–][45]). The following day, and then daily for a total of 3 doses, 5 mice each were administered the appropriate dose of the compound by gavage and evaluated by direct microscopic analysis of Giemsa-stained blood smears ([46]) 1 day after the final dose. The Portland State University Institutional Animal Care and Use Committee approved the protocols involving animals used in this study.
# [4] = In vitro heme binding (optical titration); conditions: 5 μM heme, phosphate buffer 100 mM, pH 5.7; read-out: heme binding dissociation constant (Kd)
# Protocol: In vitro heme binding and β-hematin inhibition.
# A 5 mM stock solution of heme was prepared by dissolving heme chloride in 0.1 mM NaOH by incubation at 37°C for 30 min. The solution was stored at 4°C for no more than 1 month. At the beginning of each experiment, the stock heme solution was diluted to 5 μM in phosphate buffer (100 mM, pH 5.7) and allowed to equilibrate for 4 h. The 4-h equilibration allowed for the initial heme absorbance to stabilize prior to beginning the titration. Optical titrations with each compound were performed by successive addition of aliquots of its stock solution to the 5 μM heme solution. […] Equilibrium binding constants were determined by nonlinear least-squares analysis ([39]).
# mouse spleen lymphocytes [5] = experiment: Cytotoxicity against mouse spleen lymphocytes; assay type: cell-based; conditions: estimated ±50%
# mouse spleen lymphocytes [6] = conditions: ref Andrews et al. (32); cited from earlier work
# P. falciparum D6 (CQS) [7] = conditions: ref Andrews et al. (32); cited from earlier work
# P. falciparum Dd2 (CQR) [8] = conditions: ref Andrews et al. (32); cited from earlier work
# [9] = Plasmodium falciparum, 7G8, 72 h, read-out: IC50 (nM) for P. falciparum 7G8
# [10] = Plasmodium falciparum, D6, 72 h; read-out: IC50 (nM) for P. falciparum D6
# [11] = Plasmodium falciparum, DD2, 72 h; read-out: IC50 (nM) for P. falciparum Dd2
# [12] = Plasmodium falciparum, D6; read-out: IC50 from dose-response curve against CQS D6 (Fig 4a)
# [13] = Plasmodium falciparum, DD2; read-out: IC50 from dose-response curve against CQR Dd2 (Fig 4b)
SMILES,IC50 (P. falciparum 7G8 (CQR); [9]),IC50 (P. falciparum D6 (CQS) [1]; [10]),IC50 (P. falciparum Dd2 (CQR) [3]; [11]),further results
"Clc1ccc(N2CCN(CCCNc3ccnc4cc(Cl)ccc34)CC2)cc1 [Compound 10, 7-Chloro-N-(3-(4-(4-chlorophenyl)piperazin-1-yl)propyl)quinolin-4-amine]",0.1 nM,0.3 nM,0.5 nM,"Toxicity observation [2]: Death at 260 mg/kg, delayed death of 2/4 mice at 64 mg/kg; ED50 (P. yoelii): 8 mg/kg/day"
"FC(F)(F)c1ccc(N2CCN(CCCNc3ccnc4cc(Cl)ccc34)CC2)cc1 [Compound 13, 7-Chloro-N-(3-(4-(4-(trifluoromethyl)phenyl)piperazin-1-yl)propyl)quinolin-4-amine]",0.3 nM,0.06 nM,0.2 nM,Kd [4]: ~5000 nM
"Clc1ccc2c(NCCCN3CCN(c4cccc(-c5ccccc5)c4)CC3)ccnc2c1 [Compound 7, N-(3-(4-(Biphenyl-3-yl)piperazin-1-yl)propyl)-7-chloroquinolin-4-amine]",,0.9 nM,1.8 nM,"Cytotoxicity (mouse spleen lymphocytes [5]): 2,100 nM"
"CCN(CC)CCCC(C)Nc1ccnc2cc(Cl)ccc12 (centres unmarked) [CQ, chloroquine]",,,,"IC50 (P. falciparum 7G8 (CQR); Plasmodium falciparum, 7G8, 72 h, read-out: IC50 (nM) for P. falciparum 7G8, CQR 7G8, 72 h, averages from at least 3 runs, normalized to CQ 108 nM, uncertainty ±15%): 106 nM; IC50 (P. falciparum 7G8 (CQR); read-out: IC50 (nM) for P. falciparum 7G8, CQR 7G8, 72 h, averages from at least 3 runs, normalized to CQ 108 nM, uncertainty ±15%): 108 nM; IC50 (P. falciparum D6 (CQS) [1]; Plasmodium falciparum, D6, 72 h, read-out: IC50 (nM) for P. falciparum D6): 6.9 nM; IC50 (P. falciparum D6 (CQS) [1]; Plasmodium falciparum, D6, read-out: IC50 from dose-response curve against CQS D6 (Fig 4a)): 7.9 nM; IC50 (P. falciparum Dd2 (CQR) [3]; Plasmodium falciparum, DD2, 72 h, read-out: IC50 (nM) for P. falciparum Dd2): 102 nM; IC50 (P. falciparum Dd2 (CQR) [3]; Plasmodium falciparum, DD2, read-out: IC50 from dose-response curve against CQR Dd2 (Fig 4b)): 71.7 nM"
"Fc1ccc(N2CCN(CCCNc3ccnc4cc(Cl)ccc34)CC2)cc1 [Compound 11, 7-Chloro-N-(3-(4-(4-fluorophenyl)piperazin-1-yl)propyl)quinolin-4-amine]",0.2 nM,2 nM,0.2 nM,Kd [4]: ~5000 nM
"O=[N+]([O-])c1ccc(N2CCN(CCCNc3ccnc4cc(Cl)ccc34)CC2)nc1 [Compound 24, 7-Chloro-N-(3-(4-(5-nitropyridin-2-yl)piperazin-1-yl)propyl)quinolin-4-amine]",0.5 nM,0.3 nM,0.5 nM,Toxicity observation [2]: Well tolerated at 153 mg/kg^c; ED50 (P. yoelii): 3 mg/kg/day
"Clc1ccc2c(NCCCN3CCN(c4ccccc4)CC3)ccnc2c1 [Compound 9, 7-Chloro-N-(3-(4-phenylpiperazin-1-yl)propyl)quinolin-4-amine]",0.6 nM,0.4 nM,0.7 nM,"IC50 (P. falciparum D6 (CQS) [1]; [12]): 0.5 nM; Toxicity observation [2]: Well tolerated at 300 mg/kg; dose without evident toxicity as multiple of the ED50 ([2]; single-dose toxicity screen in mice vs ED50 against P. yoelii): 150 fold; IC50 (P. falciparum Dd2 (CQR) [3]; [13]): 0.5 nM; ED50 (P. yoelii): 2 mg/kg/day; Kd [4]: ~5000 nM; Cytotoxicity (mouse spleen lymphocytes [5]): 6,400 nM"
"COc1ccc(N2CCN(CCCNc3ccnc4cc(Cl)ccc34)CC2)cc1 [Compound 12, 7-Chloro-N-(3-(4-(4-methoxyphenyl)piperazin-1-yl)propyl)quinolin-4-amine]",0.3 nM,1.3 nM,0.3 nM,Toxicity observation [2]: Well tolerated at 500 mg/kg; ED50 (P. yoelii): 10 mg/kg/day; Kd [4]: ~5000 nM
O=C(CNCCNc1ccnc2cc(Cl)ccc12)N(Cc1ccccc1)Cc1ccccc1 [Compound 2],,,,"Cytotoxicity (mouse spleen lymphocytes [6]): 62,000 nM; IC50 (P. falciparum D6 (CQS) [7]): 14 nM; IC50 (P. falciparum Dd2 (CQR) [8]): 16 nM"
"O=[N+]([O-])c1cnc(N2CCN(CCCNc3ccnc4cc(Cl)ccc34)CC2)c([N+](=O)[O-])c1 [Compound 26, 7-Chloro-N-(3-(4-(3,5-dinitropyridin-2-yl)piperazin-1-yl)propyl)quinolin-4-amine]",0.9 nM,0.5 nM,0.9 nM,
"Clc1ccc2c(NCCCN3CCN(c4ncccn4)CC3)ccnc2c1 [Compound 23, 7-Chloro-N-(3-(4-(pyrimidin-2-yl)piperazin-1-yl)propyl)quinolin-4-amine]",,1.4 nM,2.3 nM,"ED50 (P. yoelii): 7 mg/kg/day; Cytotoxicity (mouse spleen lymphocytes [5]): 28,000 nM"
"Clc1ccc2c(NCCCN3CCN(c4ccccn4)CC3)ccnc2c1 [Compound 21, 7-Chloro-N-(3-(4-(pyridin-2-yl)piperazin-1-yl)propyl)quinolin-4-amine]",0.9 nM,0.7 nM,1.1 nM,"Toxicity observation [2]: Well tolerated at 435 mg/kg; ED50 (P. yoelii): 6 mg/kg/day; Cytotoxicity (mouse spleen lymphocytes [5]): 13,300 nM"
"O=[N+]([O-])c1ccc(N2CCN(CCCNc3ccnc4cc(Cl)ccc34)CC2)cc1 [Compound 14, 7-Chloro-N-(3-(4-(4-nitrophenyl)piperazin-1-yl)propyl)quinolin-4-amine]",0.3 nM,0.9 nM,0.8 nM,
"FC(F)(F)c1ccc(N2CCN(CCCNc3ccnc4cc(Cl)ccc34)CC2)nc1 [Compound 25, 7-Chloro-N-(3-(4-(5-(trifluoromethyl)pyridin-2-yl)piperazin-1-yl)propyl)quinolin-4-amine]",1 nM,0.5 nM,0.9 nM,
"O=[N+]([O-])c1ccc(N2CCN(CCCNc3ccnc4cc(Cl)ccc34)CC2)c([N+](=O)[O-])c1 [Compound 27, 7-Chloro-N-(3-(4-(2,4-dinitrophenyl)piperazin-1-yl)propyl)quinolin-4-amine]",0.4 nM,0.3 nM,0.5 nM,
"Cc1ccc(N2CCN(CCCNc3ccnc4cc(Cl)ccc34)CC2)cc1 [Compound 15, 7-Chloro-N-(3-(4-p-tolylpiperazin-1-yl)propyl)quinolin-4-amine]",0.5 nM,0.1 nM,1.3 nM,

# Continued, in another order:
IC50 (P. falciparum 7G8 (CQR); [9]),IC50 (P. falciparum D6 (CQS) [1]; [10]),IC50 (P. falciparum Dd2 (CQR) [3]; [11]),SMILES,further results
1.2 nM,0.5 nM,1 nM,"Clc1ccc2c(NCCCN3CCN(CCc4ccccc4)CC3)ccnc2c1 [Compound 18, 7-Chloro-N-(3-(4-phenethylpiperazin-1-yl)propyl)quinolin-4-amine]",
7 nM,4 nM,7 nM,"O=C(c1ccccc1)N1CCN(CCCNc2ccnc3cc(Cl)ccc23)CC1 [Compound 20, N-(3-(4-Benzoylpiperazin-1-yl)propyl)-7-chloroquinolin-4-amine]",
1.1 nM,0.5 nM,1.6 nM,"Clc1ccc2c(NCCCN3CCN(c4ccncc4)CC3)ccnc2c1 [Compound 22, 7-Chloro-N-(3-(4-(pyridin-4-yl)piperazin-1-yl)propyl)quinolin-4-amine]",
0.2 nM,0.6 nM,0.9 nM,"Clc1ccc2c(NCCCN3CCN(c4ccc(-c5ccccc5)cc4)CC3)ccnc2c1 [Compound 8, N-(3-(4-(Biphenyl-4-yl)piperazin-1-yl)propyl)-7-chloroquinolin-4-amine]","IC50 (P. falciparum D6 (CQS) [1]; [12]): 0.7 nM; IC50 (P. falciparum Dd2 (CQR) [3]; [13]): 0.7 nM; Cytotoxicity (mouse spleen lymphocytes [5]): 2,200 nM"
9 nM,2.4 nM,7 nM,"Clc1ccc2c(NCCCN3CCN(Cc4ccccc4)CC3)ccnc2c1 [Compound 17, N-(3-(4-Benzylpiperazin-1-yl)propyl)-7-chloroquinolin-4-amine]",
,1.2 nM,2.6 nM,"Clc1ccc2c(NCCCN3CCN(c4ccccc4-c4ccccc4)CC3)ccnc2c1 [Compound 6, N-(3-(4-(Biphenyl-2-yl)piperazin-1-yl)propyl)-7-chloroquinolin-4-amine]","Cytotoxicity (mouse spleen lymphocytes [5]): 1,700 nM"
0.8 nM,1.1 nM,1.1 nM,"Clc1ccc2c(NCCCN3CCN(Cc4cccc5ccccc45)CC3)ccnc2c1 [Compound 19, 7-Chloro-N-(3-(4-(naphthalen-1-ylmethyl)piperazin-1-yl)propyl)quinolin-4-amine]",

# From publication PMC5404532, “Simplified Reversed Chloroquines To Overcome Malaria Resistance to Quinoline-Based Drugs” (Antimicrobial Agents and Chemotherapy, 2017)
